One assay has as its target ALK2 kinase (Homo sapiens (Human), UniProt Q04771). Description: Inhibitory activity test of the compounds on ALK2 (Promega ALK2 Kinase Enzyme System, ADP-Glo). Type of assay: biochemical. Conditions: ADP-Glo chemiluminescence, 65 μM ATP substrate mix; read-out: IC50 (nM) values of the inhibitory activities on ALK2. As for the experimental part: 1. Inhibitory Activity Test of the Compounds on ALK2
ALK2 Kinase Enzyme System kit from Promega was used for the test. Reagents for kinase test was prepared first, the reagents comprising: (1)4×Kinase buffer 250 μL (containing 200 μM DTT); (2)5×Inhibitor mother liquor, i.e., the test compound was prepared into 10 mM mother liquor with DMSO, and the test compound was diluted into 5 mM (20 μL of 10 mM test compound mother liquor+20 μL of DMSO dissolved) with DMSO; (3)1×Kinase buffer (containing 1% DMSO) 200 μL; (4)1×Kinase buffer 40 μL; @Kinase solution 115 μL; (6)Substrate Mix (containing 65 μM ATP) 120 μL. The inhibitor working solution was then prepared, i.e., the test compound was prepared into 5 mM mother liquor with DMSO, 1 μL of 5 mM mother liquor was taken and was diluted into the concentration of 50000 nM by adding 99 μL 1×Kinase buffer; 20 μL of the solution of this concentration was taken, and 80 μL of 1×Kinase buffer (containing 1% DMSO) was added thereto to obtain the concentration of 10000 nM, 5 times dilution was carried out in this way, and a total of 6 concentration gradients were provided. 1 μL of the compound at each concentration was taken and added to a 384-well plate, and then 2 μL Kinase solution (160 mM Tris, 7.5; 80 mM MgCl2; 0.4 mg/ml BSA; 200 μM DTT; ALK2 kinase) was added to each well, and the plate was centrifuged at 1000 rpm for 20 seconds at room temperature, incubated for 30 minutes at 25° C.; then 2 μL of a mixture containing ATP and kinase substrate was added to each well, the plate was centrifuged at 1000 rpm for 20 seconds at room temperature, and incubated at 25° C. for 120 minutes. Then 5 μL of ADP-Glo™ reagent was added to each well, and the plate was incubated at 25° C. for 40 minutes; then 10 μL of Kinase Detection Reagent was added to each well, the plate was incubated at 25° C. for 30 minutes and then was tested; a microplate reader was used to record the chemiluminescence value, the curve was fitted with Origin 7.5, the IC50 (nM) value of the test substance on the ALK2 kinase activity was calculated.
(In ADP-Glo the light output rises with the ADP produced.)

A further assay concerns hepcidin in HepG2 cells. Briefly: Inhibition test of compounds on hepcidin expression in HepG2 cells (hepcidin ELISA). The format is cell-based, human. The following applies: 48 hours incubation, hepcidin protein in supernatant by ELISA, read-out: IC50 (nM) values of the inhibitory activities on hepcidin in HepG2 cells. As for the experimental part: 2. Inhibition Test of Compounds on Hepcidin Expression in HepG2 Cells
HepG2 cells (ATCC HB-8065) in the exponential growth phase were digested with trypsin-EDTA, inoculated into 96-well plates at 5000 cells/well, and cultured in MEM (10% FBS) medium at 37° C. under 5% CO2 conditions for 24 hours, the test compound dissolved in DMSO and diluted in the medium and at a gradient concentration was added to each culture well. The preparation method of the test compound is: a compound mother liquor at a concentration of 10 mM was prepared, and then the compound was diluted in a gradient. The highest concentration of the compound for test was 10 μM, and a total of 8 gradients were obtained by 5-fold dilution. The diluted compound was added to a 96-well plate covered with cells, 50 μL per well. After the compound was added, the plate was placed in an incubator stored at 37° C. and 5% CO2, and incubated for another 48 hours. After the incubation was completed, the 96-well plate was centrifuged at 1000 rpm for 5 minutes at room temperature, the supernatant was taken, ELISA sample loading and detecting were completed within 30 minutes. Hepcidin ELISA kit (Human Hepcidin Quantikine ELISA Kit, R&D systems, Cat #DHP250) was used to quantitatively detect hepcidin protein. […] After washing and color development, the absorbance value was determined with a microplate reader at 450 nm, and the concentration of hepcidin protein in the test sample was calculated according to the quasi-curve of human hepcidin protein determination, and the curve was fitted with Origin 7.5 software, the IC50 (nM) value on the inhibition of producing hepcidin preotein of HepG2 cells by the test compound was calculated.

Molecules are shown by their SMILES. Like-named read-outs stand apart in the source and are kept apart here.

The source of these data is patent US12448364B2, “2, 4-diaminopyrimidine derivative and application thereof” (Shanghai Zheye Biotechnology Co., Ltd., priority 2018, dated 2025).

By IC50 is commonly meant the midpoint of a concentration-inhibition curve.

Chain of ALK2 kinase (Q04771 21-509): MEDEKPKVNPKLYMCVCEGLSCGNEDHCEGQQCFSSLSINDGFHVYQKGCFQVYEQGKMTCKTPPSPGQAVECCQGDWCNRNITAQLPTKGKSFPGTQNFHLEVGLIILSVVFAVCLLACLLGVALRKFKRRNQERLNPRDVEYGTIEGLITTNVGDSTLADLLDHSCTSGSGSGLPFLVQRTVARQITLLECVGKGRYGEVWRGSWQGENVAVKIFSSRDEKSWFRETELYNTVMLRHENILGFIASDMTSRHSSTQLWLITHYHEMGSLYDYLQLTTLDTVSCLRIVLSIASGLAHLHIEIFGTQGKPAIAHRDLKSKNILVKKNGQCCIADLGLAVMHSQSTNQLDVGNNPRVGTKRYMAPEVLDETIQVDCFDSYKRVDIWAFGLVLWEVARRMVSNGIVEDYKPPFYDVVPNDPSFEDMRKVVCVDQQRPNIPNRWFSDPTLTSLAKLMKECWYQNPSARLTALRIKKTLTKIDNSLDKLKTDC

Take `COc1cc(Nc2nccc(Nc3cccnc3-c3ccccn3)n2)cc(OC)c1OC` [Compound I*, reference compound]: the IC50 on ALK2 kinase is at least 500 nM; in the assay with hepcidin in HepG2 cells, 532 nM. In the case of `COc1cc(Nc2nccc(Nc3cccnc3-c3ccccn3)n2)ccc1C1CCOCC1` [Compound 1, N^4-(2,2′-bipyridin-3-yl)-N^2-(3-methoxy-4-(tetrahydro-2H-pyran-4-yl)phenyl)pyrimidine-2,4-diamine], the IC50 at ALK2 kinase lay in the range of 150 to 500 nM. For `COc1cc(Nc2nccc(Nc3cccnc3-c3ccccn3)n2)ccc1C1CCN(C)CC1` [Compound 2, N^4-(2,2′-bipyridin-3-yl)-N^2-3-(methoxy-4-(1-methylpiperidin-4-yl)phenyl)pyrimidine-2,4-diamine], the IC50 was at most 150 nM at ALK2 kinase and 14 nM in the assay with hepcidin in HepG2 cells (Homo sapiens). `COc1cc(Nc2ncc(OC)c(Nc3cccnc3-c3ccccn3)n2)ccc1C1CCOCC1` [Compound 4, N^4-(2,2′-bipyridin-3-yl)-5-methoxy-N^2-(3-methoxy-4-(tetrahydro-2H-pyran-4-yl)phenyl)pyrimidine-2,4-diamine]: at ALK2 kinase, the IC50 lay in the range of 150 to 500 nM.

Consider `COc1cc(Nc2nccc(Nc3ccc(C)nc3-c3ccccn3)n2)ccc1C1CCN(C)CC1` [Compound 5, N^2-(3-methoxy-4-(1-methylpiperidin-4-yl)phenyl)-N^4-(6-methyl-2,2′-bipyridin-3-yl)pyrimidine-2,4-diamine], for which the IC50 at ALK2 kinase was at most 150 nM; with hepcidin in HepG2 cells (Homo sapiens), 30 nM.
